The target in the assay is band 3 (anion exchanger AE1). Put plainly: […]SO4/SO4 exchange in band […] proteoliposomes. Type of assay: biochemical, Oryctolagus cuniculus.

Among the data in paper PMC2139966 (The Journal of Cell Biology, 1997) are Ki values, retold here.

By Ki is commonly meant the dissociation constant of the complex between target and ligand, obtained from inhibition or displacement.

For `O=[N+]([O-])c1ccc(/C=C/c2ccc([N+](=O)[O-])cc2S(=O)(=O)O)c(S(=O)(=O)O)c1` [DNDS, 4,4′-dinitorsostilbene-2,2′-disulfonic acid], the Ki came out at 2 ± 1 µM.
